Results: PMC6767265, “Cytotoxicity and Apoptosis Induction of Coumarins and Carbazole Alkaloids from Clausena Harmandiana” (Molecules, 2019)
Marks after values point to notes of the source that are not given here.

What was measured:
[1] = test system: human colon carcinoma cell line (HCT116); assay: Cell viability assay (neutral red), HCT116; type: cell-based; design: key to IC50 HCT116: inactive: Inactive means cell viability percentage was >50% at the maximum concentration used (>100 µM for the compound or >100 µg/mL for the extract); settings: for IC50 HCT116 / IC50: 24 h, neutral red, inactive = viability >50% at >100 µM; for Selectivity Index HCT116: cancer cells over noncancerous Vero cells
Method: (§1) The human lung adenocarcinoma cell line (SK-LU-1), human colon carcinoma cell line (HCT116), human hepatocellular carcinoma cell line (HepG2) and noncancerous African green monkey kidney epithelial cell line (Vero) were cultured in Dulbecco’s modified Eagle’s medium (DMEM) supplemented with 10% fetal bovine serum, 100 IU/mL penicillin and […] streptomycin. Cells were incubated at 37 °C with 95% air and 5% CO2 until they reached approximately 80% confluence before use.
(§2) Cell viability assay was assessed by neutral red (NR). Briefly, cells at a density of 3 × 10^4 cells/well were seeded in 96-wells plate and incubated for 24 h. […] After incubation time, cells were washed with PBS. NR reagent (50 µg/mL) was added to each well and incubated for another 2 h. After that, cells were washed with PBS and lyzed with 0.33% HCl in isopropanol. Cisplatin was used as a positive control. The absorbance of NR was detected using microplate reader (Tecan, Lyon, France) at 520 nm. The percentage of cell viability was calculated vis-à-vis the untreated cells and cytotoxicity was expressed as the inhibition concentration at 50% (IC50). The final DMSO concentration was not exceed 0.1%v/v to lessen the cytotoxicity (<10%).

[2] = test system: human lung adenocarcinoma cell line (SK-LU-1); assay: Cell viability assay (neutral red), SK-LU-1; type: cell-based; design: key to IC50 SK-LU-1: inactive: Inactive means cell viability percentage was >50% at the maximum concentration used (>100 µM for the compound or >100 µg/mL for the extract); settings: for IC50 SK-LU-1 / IC50: 24 h, neutral red, inactive = viability >50% at >100 µM; for Selectivity Index SK-LU-1: cancer cells over noncancerous Vero cells
Method: as §1, §2

[3] = test system: noncancerous African green monkey kidney epithelial cell line (Vero); assay: Cell viability assay (neutral red), Vero; type: cell-based; design: key to IC50 Vero: inactive: Inactive means cell viability percentage was >50% at the maximum concentration used (>100 µM for the compound or >100 µg/mL for the extract); settings: 24 h, inactive = viability >50% at >100 µM
Method: as §1
(§3) Cell viability assay was assessed by neutral red (NR). Briefly, cells at a density of 3 × 10^4 cells/well were seeded in 96-wells plate and incubated for 24 h. The sample at concentration, ranging from 10 to 500 µM, were added and incubated for 24 h. After incubation time, cells were washed with PBS. NR reagent (50 µg/mL) was added to each well and incubated for another 2 h. After that, cells were washed with PBS and lyzed with 0.33% HCl in isopropanol. Cisplatin was used as a positive control. The absorbance of NR was detected using microplate reader (Tecan, Lyon, France) at 520 nm. The percentage of cell viability was calculated vis-à-vis the untreated cells and cytotoxicity was expressed as the inhibition concentration at 50% (IC50). The final DMSO concentration was not exceed 0.1%v/v to lessen the cytotoxicity (<10%).

[4] = DPPH radical scavenging assay; type: biochemical; settings: for DPPH Assay IC50 / IC50: 30 min in the dark, absorbance 517 nm; for DPPH radical scavenging activity classification: classified from IC50 in µg/mL
Method: The 2,2–diphenyl–1–picrylhydrazyl (DPPH) radical scavenging assay was conducted as per the previous method. Briefly, the stock solutions of 10 mM DPPH was prepared in methanol. The DPPH was mixed with samples (100 µL each) at various concentrations (1−500 µM) in 96 wells plate and incubated for 30 min in a dark condition. The absorbance of DPPH radical was measured at 517 nm using a microplate reader (Tecan, Lyon, France). Trolox was used as a positive control. The half maximum inhibitory concentration (IC50 value) was calculated from the plot of percentage of DDPH radical inhibition versus concentration of samples using the following formula: % DPPH radical inhibition = [(Ab − As)/Ab] × 100,(1) where Ab = absorbance of the reagent blank, and As = absorbance of the sample. Each experiment was done in five replications and results are expressed as average values.

[5] = test system: human hepatocellular carcinoma cell line (HepG2); assay: Cell viability assay (neutral red), HepG2; type: cell-based; settings: for IC50: 24 h, neutral red; for Selectivity Index HepG2: cancer cells over noncancerous Vero cells
Method: as §1, §3

[6] = Ferric reducing antioxidant power (FRAP) assay; type: biochemical; settings: 100 µM compound
Method: FRAP assay was performed following the pervious study with slight modification. FRAP reagent was prepared by mixing 300 mM acetate buffer (pH 3.6), 20 mM ferric chloride solution and 10 mM TPTZ solution in the ratio of 10:1:1 and incubated at 37 °C for 30 min. Then, 150 µL of FRAP reagent was added with 50 µL of the sample (100 µM of isolated compounds or 100 µg/mL of the CH2Cl2 crude extract) in each well of the 96-wells plate. The absorbance was measured at 595 nm using microplate reader (Tecan, Lyon, France). Trolox was used as a positive control. The FRAP value was calculated from the linear equation between the absorbance and ferrous sulfate standard curves (y = 0.0548x + 0.0213, R^2 = 0.9989) and expressed as µM of ferrous sulfate equivalents.

| SMILES | Selectivity Index HCT116 [1] | Selectivity Index SK-LU-1 [2] | IC50 Vero [3] | DPPH Assay IC50 [4] | IC50 [4] [µM] | DPPH radical scavenging activity classification [4] | IC50 ([5]; Homo sapiens, HepG2) [µM] | Selectivity Index HepG2 [5] | FRAP Value [6] | IC50 ([1]; Homo sapiens, HCT-116) [µM] | IC50 ([2]; Homo sapiens, SK-LU-1) [µM] | also measured |
| --- | --- | --- | --- | --- | --- | --- | --- | --- | --- | --- | --- | --- |
| COc1ccc2c(c1)[nH]c1c(CC=C(C)C)c(O)c(C=O)cc12 [7-Methoxyheptaphylline (7), 7-methoxyheptaphylline] | (1.0) | 1.0) | inactive^bB | 96.8 ± 1.1^g µg/mL | 313 ± 3.4 | low radical scavenger | 65.5 ± 2.7 | (1.5) | 1.4 ± 0.1^g µM FeSO4 Equivalents | – | – | IC50 HCT116 [1]: inactive^bE; IC50 SK-LU-1 [2]: inactive^bF; FRAP Value ([6]; listed as 7-methoxyheptaphylline): 1.4 µM FeSO4 Equivalents |
| COc1ccc2c(c1)[nH]c1cc(O)c(C=O)cc12 [7-Methoxymukonal (5), 7-methoxymukonal] | (1.0) | (1.0) | inactive^bB | 6.8 ± 0.5^b µg/mL | 26.2 ± 2 | moderate radical scavenger | 82.6 ± 2.8 | (1.2) | 47.0 ± 0.6^a µM FeSO4 Equivalents | – | – | IC50 HCT116 [1]: inactive^bE; IC50 SK-LU-1 [2]: inactive^bF; FRAP Value ([6]; listed as 7-methoxymukonal): 47.0 µM FeSO4 Equivalents |
| N.N.[Cl][Pt][Cl] [Cisplatin, reference compound] | (1.4) | (2.3) | inactive^dB | – | – | – | – | (4.6) | – | – | – | IC50 [1]: 71.9 ± 2.7 µM; IC50 [2]: 42.7 ± 1.9 µM; IC50 [5]: 21.8 ± 3 µM |
| C=CC(C)(C)c1c2c(c(OC)c3ccc(=O)oc13)C=CC(C)(C)O2 [Dentatin (3), dentatin] | (1.4) | (2.2) | inactive^cB | >500^h µg/mL | > 500 | no activity | 47.6 ± 2.8 | (2.1) | 4.7 ± 0.1^f µM FeSO4 Equivalents | 73.9 ± 2.5 | 45.4 ± 2.5 | FRAP Value ([6]; listed as dentatin): 4.7 µM FeSO4 Equivalents |
| CC(C)=CCc1c(O)c(C=O)cc2c1[nH]c1ccccc12 [Heptaphylline (1), heptaphylline] | (1.3) | (1.2) | inactive^dB | 93.5 ± 2.2^f µg/mL | 335 ± 7.8 | low radical scavenger | 37.8 ± 2.6 | (2.6) | 1.0 ± 0.0^g µM FeSO4 Equivalents | 74.7 ± 2.1 | 83.1 ± 2.6 | FRAP Value ([6]; listed as heptaphylline): 1.0 µM FeSO4 Equivalents |
| C=CC(C)(C)c1c2c(c(O)c3ccc(=O)oc13)C=CC(C)(C)O2 [Nordentatin (6), nordentatin] | (1.6) | (1.5) | inactive^cB | 12.0 ± 0.8^c µg/mL | 38.3 ± 2.5 | moderate radical scavenger | 29.9 ± 3.2 | (3.3) | 9.0 ± 1.1^e µM FeSO4 Equivalents | 63.6 ± 2.3 | 67.3 ± 1.2 | FRAP Value ([6]; listed as nordentatin): 9.0 µM FeSO4 Equivalents |
| Cc1c(C)c2c(c(C)c1O)CCC(C)(C(=O)O)O2 (stereo not drawn) [Trolox, 6-hydroxy-2,5,7,8-tetramethylchroman-2-carboxylic acid, reference compound] | – | – | – | 4.2 ± 0.1^a µg/mL | 16.8 ± 0.6 | moderate radical scavenger | – | – | 37.7 ± 0.8^c µM FeSO4 Equivalents | – | – | FRAP Value ([6]; listed as trolox): 37.7 µM FeSO4 Equivalents |
